According to patent US9115101B2 (Genentech, Inc., priority 2012, dated 2015):
Where two headings read alike, the source gives them in different places.

Biological target: T1, RORc ligand binding domain (Homo sapiens, UniProt P51449)
T1 construct: host or cells: E. coli
T1 sequence (P51449 269-508 limits assumed): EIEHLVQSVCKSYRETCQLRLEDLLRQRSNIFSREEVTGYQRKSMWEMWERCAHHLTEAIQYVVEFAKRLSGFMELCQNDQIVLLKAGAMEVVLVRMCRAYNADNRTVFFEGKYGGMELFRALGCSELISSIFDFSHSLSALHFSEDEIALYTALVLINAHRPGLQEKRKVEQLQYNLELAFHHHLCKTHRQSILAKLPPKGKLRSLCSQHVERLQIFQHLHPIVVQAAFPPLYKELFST
Experiment: In Vitro RORc Ligand Binding Assay (25-[3H]hydroxycholesterol radioligand filtration)
Details: read-out: RORc IC50

[1] = In Vitro RORc Ligand Binding Assay, Table 4

SMILES | IC50 [1] [µM] | IC50 [µM]
CC1CN(C(=O)c2ccc(CN3[C@@H](C)CCC(c4ccccc4)S3(=O)=O)cc2)CC(=O)N1 (stereo partly drawn) [Example 368, 6-Methyl-4-[4-((3S)-methyl-1,1-dioxo-6-phenyl-[1,2]thiazinan-2-ylmethyl)-benzoyl]-piperazin-2-one] | 2.36 | –
CNC(=O)[C@H]1CN(c2ccc(CN3[C@@H](C)CCC(c4ccccc4)S3(=O)=O)c(F)c2)CCN1C(C)=O (stereo partly drawn) [Example 383, (R)-1-Acetyl-4-[3-fluoro-4-((3S)-methyl-1,1-dioxo-6-phenyl-[1,2]thiazinan-2-ylmethyl)-phenyl]-piperazine-2-carboxylic acid methylamide] | 0.705 | –
C[C@H]1CCC(c2ccccc2)S(=O)(=O)N1Cc1ccc(OC[C@@H]2CCC(=O)N2)cc1 (single isomer, unassigned) [Example 454] | – | 0.62
CC(=O)N1CCN(c2ccc(CN3[C@@H](C)CCC(c4ccccc4)S3(=O)=O)c(F)c2)C[C@H]1C(=O)O (stereo partly drawn) [Example 377, (S)-1-Acetyl-4-[3-fluoro-4-((3S)-methyl-1,1-dioxo-6-phenyl-[1,2]thiazinan-2-ylmethyl)-phenyl]-piperazine-2-carboxylic acid] | 1.36 | –
C[C@H]1CCC(c2ccccc2)S(=O)(=O)N1Cc1ccc(C(=O)N2C3CNC(=O)C2C3)cc1 (stereo partly drawn) [Example 360, 6-[4-((3S)-Methyl-1,1-dioxo-6-phenyl-[1,2]thiazinan-2-ylmethyl)-benzoyl]-3,6-diaza-bicyclo[3.1.1]heptan-2-one] | 3.45 | –
C[C@H]1CCC(c2ccccc2)S(=O)(=O)N1Cc1ccc(C(=O)NCCCN2CCCC2=O)cc1 (stereo partly drawn) [Example 272, 4-((3S)-Methyl-1,1-dioxo-6-phenyl-[1,2]thiazinan-2-ylmethyl)-N-[3-(2-oxo-pyrrolidin-1-yl)-propyl]-benzamide] | 2.89 | –
CC(=O)N1CCN(c2ccc(CN3[C@@H](C)CCC(c4ccc(C#N)cc4)S3(=O)=O)c(F)c2)CC1 (single isomer, unassigned) [Example 172] | 1.02 | –
CC(=O)N1C[C@@H]2CN(c3ccc(CN4[C@@H](C)CCC(c5ccccc5)S4(=O)=O)c(F)c3)C[C@@H]2C1 (stereo partly drawn) [Example 245, 1-{(3aR,6aS)-5-[3-Fluoro-4-((3S)-methyl-1,1-dioxo-6-phenyl-[1,2]thiazinan-2-ylmethyl)-phenyl]-hexahydro-pyrrolo[3,4-c]pyrrol-2-yl}-ethanone] | 0.189 | –
C[C@H]1CCC(c2ccccc2)S(=O)(=O)N1Cc1ccc(N2CCCNCC2)cc1F (single isomer, unassigned) [Example 89] | 1.25 | –
C[C@H]1CCC(c2ccccc2)S(=O)(=O)N1Cc1ccc(OC2CCOCC2)cc1 (stereo partly drawn) [Example 432, (3S)-Methyl-6-phenyl-2-[4-(tetrahydro-pyran-4-yloxy)-benzyl]-[1,2]thiazinane 1,1-dioxide] | – | 1.11
C[C@H]1CCC(c2ccccc2)S(=O)(=O)N1Cc1ccc(C(=O)NCC2COC2)cc1 (stereo partly drawn) [Example 269, 4-((3S)-Methyl-1,1-dioxo-6-phenyl-[1,2]thiazinan-2-ylmethyl)-N-oxetan-3-ylmethyl-benzamide] | 1.67 | –
CC(=O)N1CCN(c2ccc(CN3C(C)(C)CCC(c4ccccc4)S3(=O)=O)c(F)c2)CC1 (single isomer, unassigned) [Example 14, 1-{4-[4-(3,3-Dimethyl-1,1-dioxo-6-phenyl-[1,2]thiazinan-2-ylmethyl)-3-fluoro-phenyl]-piperazin-1-yl}-ethanone] | 1.9 | –
CC(=O)N1CCN(c2ccc(CN3[C@H](C)CCC(c4ccccc4)S3(=O)=O)cn2)CC1 (single isomer, unassigned) [Example 49] | 5.5 | –
CC(=O)N1CCN(c2cnc(CN3[C@@H](C)CCC(c4ccccc4)S3(=O)=O)cn2)CC1 (single isomer, unassigned) [Example 179] | 0.942 | –
CC(=O)N1CCC(C(=O)Nc2ccc(CN3[C@@H](C)CCC(c4ccccc4)S3(=O)=O)c(F)c2)CC1 (stereo partly drawn) [Example 457, 1-Acetyl-piperidine-4-carboxylic acid [3-fluoro-4-((3S)-methyl-1,1-dioxo-6-phenyl-[1,2]thiazinan-2-ylmethyl)-phenyl]-amide] | – | 0.437
C[C@H]1CCC(c2ccccc2)S(=O)(=O)N1Cc1ccc(NCC2CCOCC2)cc1F (stereo partly drawn) [Example 445, [3-Fluoro-4-((3S)-methyl-1,1-dioxo-6-phenyl-[1,2]thiazinan-2-ylmethyl)-phenyl]-(tetrahydro-pyran-4-ylmethyl)-amine] | – | 0.025
C[C@H]1CCC(c2ccccc2)S(=O)(=O)N1Cc1ccc(N2CCN3C(=O)CN(C)C(=O)[C@@H]3C2)cc1F (stereo partly drawn) [Example 402, (S)-8-[3-Fluoro-4-((3S)-methyl-1,1-dioxo-6-phenyl-[1,2]thiazinan-2-ylmethyl)-phenyl]-2-methyl-hexahydro-pyrazino[1,2-a]pyrazine-1,4-dione] | – | 3.54
CC(Oc1ccc(CN2[C@@H](C)CCC(c3ccccc3)S2(=O)=O)cc1)C1CCOCC1 (stereo partly drawn) [Example 437, (3S)-Methyl-6-phenyl-2-{4-[1-(tetrahydro-pyran-4-yl)-ethoxy]-benzyl}-[1,2]thiazinane 1,1-dioxide] | – | 0.048
C[C@H]1CCC(c2ccccc2)S(=O)(=O)N1Cc1ccc(C(=O)N2CCN(S(C)(=O)=O)CC2)cc1 (stereo partly drawn) [Example 287, (4-Methanesulfonyl-piperazin-1-yl)-[4-((3S)-methyl-1,1-dioxo-6-phenyl-[1,2]thiazinan-2-ylmethyl)-phenyl]-methanone] | 0.203 | –
C[C@H]1CCC(c2ccccc2)S(=O)(=O)N1Cc1ccc(C(=O)N2CCn3nccc3C2)cc1 (stereo partly drawn) [Example 373, (6,7-Dihydro-4H-pyrazolo[1,5-a]pyrazin-5-yl)-[4-((3S)-methyl-1,1-dioxo-6-phenyl-[1,2]thiazinan-2-ylmethyl)-phenyl]-methanone] | 4.36 | –
C[C@H]1CCC(c2ccccc2)S(=O)(=O)N1Cc1ccc(C(=O)NCC2CCOC2)cc1 (stereo partly drawn) [Example 271, 4-((3S)-Methyl-1,1-dioxo-6-phenyl-[1,2]thiazinan-2-ylmethyl)-N-(tetrahydro-furan-3-ylmethyl)-benzamide] | 1.69 | –

More lines, in order of falling IC50 [1], values ahead:

IC50 [1] [µM] | IC50 [µM] | SMILES
0.182 | – | CC(=O)N1CCN(c2ccc(CN3[C@@H](C)COCC(c4ccccc4)S3(=O)=O)c(F)c2)CC1 (single isomer, unassigned) [Example 24]
0.168 | – | CC[C@H]1CCC(c2ccccc2)S(=O)(=O)N1Cc1ccc(N2CCC(n3cnnc3)CC2)cc1F (single isomer, unassigned) [Example 229]
0.138 | – | CNC(=O)[C@@H]1CN(c2ccc(CN3[C@@H](C)CCC(c4ccccc4)S3(=O)=O)c(F)c2)CCN1C(C)=O (stereo partly drawn) [Example 380, (S)-1-Acetyl-4-[3-fluoro-4-((3S)-methyl-1,1-dioxo-6-phenyl-[1,2]thiazinan-2-ylmethyl)-phenyl]-piperazine-2-carboxylic acid methylamide]
0.132 | – | CC(=O)N1CCN(c2ccc(CN3C[C@H](C)CC(c4ccccc4)S3(=O)=O)c(F)c2)CC1 (single isomer, unassigned) [Example 169]
0.103 | – | C[C@H]1CCC(c2ccccc2)S(=O)(=O)N1Cc1ccc(N2CCN(C(=O)CC#N)CC2)cc1F (single isomer, unassigned) [Example 69]
0.093 | – | C[C@H]1CCC(c2ccccc2)S(=O)(=O)N1Cc1ccc(N2CC3(CCOC3)C2)cc1F (single isomer, unassigned) [Example 95]
0.071 | – | CC(=O)N1CCN(c2ccc(CN3CCC(C)CC(c4ccccc4)S3(=O)=O)c(F)c2)CC1 (single isomer, unassigned) [Example 332, 1-{4-[3-Fluoro-4-(5-methyl-1,1-dioxo-7-phenyl-[1,2]thiazepan-2-ylmethyl)-phenyl]-piperazin-1-yl}-ethanone]
0.062 | – | COc1ccccc1C1CC[C@H](C)N(Cc2ccc(N3CCN(C(C)=O)CC3)cc2F)S1(=O)=O (single isomer, unassigned) [Example 224]
0.047 | – | CC(=O)N1CCN(c2ccc(CN3[C@@H](C)CCC(c4ccc(F)cc4)S3(=O)=O)c(F)c2)CC1 (single isomer, unassigned) [Example 122]
0.041 | – | C[C@H](O)C(=O)N1C[C@H]2C[C@@H]1CN2c1ccc(CN2[C@@H](C)CCC(c3ccccc3)S2(=O)=O)c(F)c1 (single isomer, unassigned) [Example 182]
0.04 | – | C[C@H]1CCC(c2ccccc2)S(=O)(=O)N1Cc1ccc(N[C@H]2CC[C@@H](C#N)CC2)cc1F (single isomer, unassigned) [Example 97]
0.032 | – | CC(=O)N1CCN(c2ccc(CN3[C@@H](C)COCC(c4ccccc4)S3(=O)=O)c(F)c2)CC1 (single isomer, unassigned) [Example 25]
0.032 | – | CC(=O)N1CCN(c2ccc(CN3CCCCC(c4ccccc4)S3(=O)=O)cc2F)CC1 (single isomer, unassigned) [Example 344, 1-{4-[4-(1,1-Dioxo-7-phenyl-[1,2]thiazepan-2-ylmethyl)-2-fluoro-phenyl]-piperazin-1-yl}-ethanone]
0.017 | – | CC(=O)N1CCN(c2ccc(CN3[C@@H](C)CCC(c4cccc(Cl)c4)S3(=O)=O)c(F)c2)CC1 (single isomer, unassigned) [Example 200]
0.01 | – | O=S1(=O)C(c2ccccc2)CCCCN1Cc1ccc(N2CCC(n3cnnc3)CC2)cc1F (single isomer, unassigned) [Example 325, 2-[2-Fluoro-4-(4-[1,2,4]triazol-4-yl-piperidin-1-yl)-benzyl]-7-phenyl-[1,2]thiazepane 1,1-dioxide]
0.009 | – | C[C@H]1CCC(c2ccccc2)S(=O)(=O)N1Cc1ccc(NC2CCN(S(C)(=O)=O)CC2)cc1 (stereo partly drawn) [Example 216, (1-Methanesulfonyl-piperidin-4-yl)-[4-((3S)-3-methyl-1,1-dioxo-6-phenyl-[1,2]thiazinan-2-ylmethyl)-phenyl]-amine]
